Experimental data: paper PMC12116762, “Topobexin targets the Topoisomerase II ATPase domain for beta isoform-selective inhibition and anthracycline cardioprotection” (Nature Communications, 2025)
Where “and” joins values, the source holds several entries; their conditions need not be identical. Identical values can stand only once.

What was measured:
HL-60 cell line = assay: Antiproliferative activity and interference with DAU (MTT), HL-60; type: cell-based, human; conditions: for HL-60 proliferation (MTT), mean of independent replicates: Suppl.Fig.8c
Description: Antiproliferative effects of studied compounds alone or in combination with DAU were assayed, as described previously, using HL-60 cell line (ATCC® Catalog Number: CCL-240TM, lot 5036502; American Type Culture Collection, Manassas, VA) derived from a patient with acute promyelocytic leukaemia. The cells were cultured in RPMI-1640 medium supplemented with 10% FBS, 50 U/mL penicillin, and 50 μg/mL streptomycin solution at 37 °C in a humidified atmosphere of 5% CO2. For the experiments, cells were seeded on 96-well plates (TPP, Switzerland) at a density of 10,000 cells per well ([…]). […] Proliferation was assessed by the MTT assay. Briefly, 25 µL of 3 mg/mL MTT solution (3(4,5-dimethyl-2-thiazolyl)-2,5-diphenyl-2H-tetrazolium bromide) in PBS was added to each well, and after 2 h of incubation at 37 °C the cells were lysed with lysis buffer (isopropanol, 0.1 M HCl, 5% Triton X-100) for 30 minutes at RT. After the formazan was dissolved, the absorbance of the samples was measured at 570 nm and a reference wavelength at 690 nm (the 690 nm background absorbance was subtracted from the 570 nm values). Data are expressed as mean ± SD from four independent experiments. Normalized values were plotted as a function of inhibitor concentration to determine IC50 values using Prism 9 (GraphPad). Statistical significance was evaluated by ANOVA with the Holm-Sidak post hoc test (P ≤ 0.05, marked as significant difference against control (c) or DAU (d)).

γH2AX [1] = assay: γH2AX levels in HL-60 cells (Western blotting); type: cell-based, human; conditions: for γH2AX level, mean of independent replicates: Suppl.Fig.8d
γH2AX [2] = assay: Acute DAU-induced DNA damage (γH2AX) in rabbit LV myocardium; type: in vivo; set-up: γH2AX in LV myocardium: scale not given here; conditions: for γH2AX in LV myocardium: individual animals
Description: For the determination of γH2aX protein in in vivo experiments, pulverized rabbit LV samples were homogenized in commercial 1× SDS Lysis Buffer (PhosphoSolutions) with phosphatase and protease inhibitor solutions (Thermo Fisher Scientific and Roche, respectively) and boiled at 95 °C for 10 min. Protein concentrations were assessed by the BCA Protein Assay Kit (Sigma-Aldrich), and 85 μg of protein were loaded into Mini-PROTEAN 12% TGX Precast Stain-free Gel (Bio-Rad). After separation, the proteins were transferred onto a nitrocellulose membrane using a Trans-Blot Turbo System (all Bio-Rad). Mouse monoclonal anti-γH2AX (1:800, ab26350, Abcam) was used as the primary antibody, and horseradish peroxidase-conjugated goat anti-mouse immunoglobulin (1:1000, P044701, DAKO) was used as the secondary antibody. The BM Chemiluminescence Blotting Substrate (Roche) and Fusion Solo S coupled with CCD camera (Vilber) were used for signal detection.
Rabbits (n = 24) were divided equally into four groups (n = 6 in each) receiving a single dose as follows: DAU (3 mg/kg, i.v. bolus), saline (1 ml/kg, i.v., the control group), topobexin (9) alone (10 mg/kg, prepared and administered as describe above in the pharmacokinetic study, i.e., in 20 min i.v. infusion) and the combination group (topobexin (9) 10 mg/kg via 20 min i.v. infusion followed by DAU 3 mg/kg as i.v. bolus into the contralateral ear 40 min after the end of topobexin (9) infusion). Based on preliminary data, the experiment was completed 90 min after administration of DAU or saline. The heart was excised and γH2AX as a marker of DNA damage was determined in myocardial homogenates using Western blotting as described above.

COc1cccc2c1C(=O)c1c(O)c3c(c(O)c1C2=O)C[C@@](O)(C(C)=O)C[C@@H]3O[C@H]1C[C@H](N)[C@H](O)[C@H](C)O1 [DAU, daunorubicin, reference compound]
HL-60 proliferation (MTT), mean of independent replicates (HL-60 cell line; DAU 1.2 µM alone): 35.1587 | γH2AX level, mean of independent replicates (γH2AX [1]; DAU 1.2 µM alone (mean = 100)): 100 | γH2AX in LV myocardium (γH2AX [2]; DAU 3 mg/kg alone, 1.5 h): 10.11 and 5.83 and 6.97 and 6.98 and 3.35 and 7.46

CCCc1cc(=O)oc2c(C(=O)N3CCCc4ccccc43)c(OCCN3CCN(C)CC3)ccc12 [topobexin (9)]
effect on antiproliferative effects of DAU (HL-60 cell line; HL-60, any concentration tested): did not decrease the antiproliferative effects of DAU | HL-60 proliferation (MTT), mean of independent replicates (HL-60 cell line; compound 0.01 µM + DAU 1.2 µM): 39.4171 | HL-60 proliferation (MTT), mean of independent replicates (HL-60 cell line; compound 0.1 µM + DAU 1.2 µM): 37.298 | HL-60 proliferation (MTT), mean of independent replicates (HL-60 cell line; compound 1 µM + DAU 1.2 µM): 37.3478 | HL-60 proliferation (MTT), mean of independent replicates (HL-60 cell line; compound 10 µM + DAU 1.2 µM): 18.3679 | HL-60 proliferation (MTT), mean of independent replicates (HL-60 cell line; compound 30 µM + DAU 1.2 µM): 13.5189 | HL-60 proliferation (MTT), mean of independent replicates (HL-60 cell line; compound 100 µM + DAU 1.2 µM): 1.772 | HL-60 proliferation (MTT), mean of independent replicates (HL-60 cell line; compound alone 0.01 µM): 99.5782 | HL-60 proliferation (MTT), mean of independent replicates (HL-60 cell line; compound alone 0.1 µM): 97.2193 | HL-60 proliferation (MTT), mean of independent replicates (HL-60 cell line; compound alone 1 µM): 91.5968 | HL-60 proliferation (MTT), mean of independent replicates (HL-60 cell line; compound alone 10 µM): 13.6521 | HL-60 proliferation (MTT), mean of independent replicates (HL-60 cell line; compound alone 30 µM): 12.3063 | HL-60 proliferation (MTT), mean of independent replicates (HL-60 cell line; compound alone 100 µM): 1.671 | concentration with statistically significant decrease in γH2AX levels (γH2AX [1]; HL-60, DAU, highest concentration tested): 10 µM | γH2AX level, mean of independent replicates (γH2AX [1]; compound 0.1 µM + DAU 1.2 µM, DAU mean = 100): 85.0292 | γH2AX level, mean of independent replicates (γH2AX [1]; compound 0.3 µM + DAU 1.2 µM, DAU mean = 100): 71.0118 | γH2AX level, mean of independent replicates (γH2AX [1]; compound 1 µM + DAU 1.2 µM, DAU mean = 100): 59.3884 | γH2AX level, mean of independent replicates (γH2AX [1]; compound 3 µM + DAU 1.2 µM, DAU mean = 100): 59.6746 | γH2AX level, mean of independent replicates (γH2AX [1]; compound 10 µM + DAU 1.2 µM, DAU mean = 100): 31.6085 | γH2AX level, mean of independent replicates (γH2AX [1]; compound alone 0.1 µM, DAU mean = 100): 21.4098 | γH2AX level, mean of independent replicates (γH2AX [1]; compound alone 0.3 µM, DAU mean = 100): 25.2396 | γH2AX level, mean of independent replicates (γH2AX [1]; compound alone 1 µM, DAU mean = 100): 23.449 | γH2AX level, mean of independent replicates (γH2AX [1]; compound alone 3 µM, DAU mean = 100): 19.8181 | γH2AX level, mean of independent replicates (γH2AX [1]; compound alone 10 µM, DAU mean = 100): 24.2375 | DAU-induced DNA damage (γH2AX) in LV myocardium (γH2AX [2]; 10 mg/kg before DAU 3 mg/kg, 1.5 h after DAU): effectively prevent induction of DNA damage | γH2AX in LV myocardium (γH2AX [2]; Topobexin alone 10 mg/kg): 1.55 and 1.42 and 1.45 and 1.03 and 1.17 and 1.33 | γH2AX in LV myocardium (γH2AX [2]; Topobexin+DAU): 1.79 and 1.30 and 1.64 and 0.82 and 1.38 and 2.72
